Legend:
morningglory [1] = experiment: Test A postemergence; assay type: in vivo, Ipomoea spp.
Outline: (§1)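 Seeds were sown in a loam soil–sand blend and given a directed soil spray preemergence; postemergence plants at 2–10 cm, one- to two-leaf stage, were sprayed with compound in non-phytotoxic solvent with surfactant. After about 10 days in a greenhouse, injury was visually rated against untreated controls (0 = no effect, 100 = complete control).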

blackgrass = experiment: Test C preemergence; assay type: in vivo, Alopecurus myosuroides; details: for Blackgrass plant response rating / Plant response rating, Blackgrass: preemergence; for Plant response rating, Blackgrass: scale 0 to 100, 0 = no effect, 100 = complete control
Outline: (§2)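 In this greenhouse assay, seeded soil (loam plus sand) or emerged seedlings in peat-vermiculite medium were treated with formulated compound. Roughly two weeks later (13–15 days), each species was scored visually relative to controls, from 0 for no effect to 100 for complete control.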

waterhemp = experiment: Test C postemergence; assay type: in vivo, Amaranthus rudis; details: for Plant response rating, Waterhemp / Waterhemp plant response rating: postemergence; for Waterhemp plant response rating: scale 0 to 100
Outline: as §2

morningglory [2] = experiment: Test C preemergence; assay type: in vivo, Ipomoea coccinea
Outline: as §2

crabgrass, large [3] = experiment: Test C preemergence; assay type: in vivo, Digitaria sanguinalis
Outline: as §2

foxtail, giant = experiment: Test A postemergence; assay type: in vivo, Setaria faberii
Outline: as §1

oilseed rape [4] = experiment: Test C postemergence; assay type: in vivo, Brassica napus; details: for Oilseed Rape plant response rating / Plant response rating, Oilseed Rape: postemergence; for Oilseed Rape plant response rating: 62 g ai/ha, scale 0 to 100
Outline: as §2

velvetleaf = experiment: Test C postemergence; assay type: in vivo, Abutilon theophrasti; details: for Plant response rating, Velvetleaf / Velvetleaf plant response rating: postemergence; for Velvetleaf plant response rating: scale 0 to 100
Outline: as §2

soybean = experiment: Test C postemergence; assay type: in vivo, Glycine max; details: for Plant response rating, Soybean / Soybean plant response rating: postemergence
Outline: as §2

ducksalad = experiment: Test B flood; assay type: in vivo, Heteranthera limosa; details: 250 g ai/ha, visual rating on 0 to 100 scale (0 no effect, 100 complete control), 13 to 15 days
Outline: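 Two-leaf-stage plants, pots flooded (3 cm above soil) and treated through the water, which stayed at that depth. After 13–15 days in greenhouse conditions, visual assessment versus controls: 0 is no effect, 100 complete control, dash means no result.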

johnsongrass = experiment: Test C preemergence; assay type: in vivo, Sorghum halepense
Outline: as §2

crabgrass, large [5] = experiment: Test C postemergence; assay type: in vivo, Digitaria sanguinalis; details: for Plant response rating (scale of 0 to 100 where 0 is no effect and 100 is complete control), Crabgrass, Large: Postemergence, 31 g ai/ha, visually evaluated after 13 to 15 days; for Crabgrass, Large plant response rating / Plant response rating, Crabgrass, Large: postemergence; for Crabgrass, Large plant response rating: 62 g ai/ha, scale 0 to 100
Outline: as §2

oilseed rape [6] = experiment: Test C preemergence; assay type: in vivo, Brassica napus
Outline: as §2

[7] = Postemergence, 125 g ai/ha, 0 to 100 scale, 0 no effect, 100 complete control
[8] = Postemergence, 500 g ai/ha, 0 to 100 scale (0 no effect, 100 complete control)
[9] = 31 g ai/ha, visual rating, scale 0 to 100 (0 no effect, 100 complete control), 13 to 15 days
[10] = 62 g ai/ha, scale 0 to 100 (0 no effect, 100 complete control), 13 to 15 days
[11] = 250 g ai/ha, scale 0 to 100, 0 is no effect, 100 is complete control
[12] = 250 g ai/ha, scale 0 to 100 (0 no effect, 100 complete control)
[13] = Preemergence, rate head not shown (block before 16 g ai/ha), scale 0 to 100
[14] = preemergence, 62 g ai/ha, scale 0 to 100 (0 no effect, 100 complete control), 13 to 15 days
[15] = preemergence, 125 g ai/ha, 13 to 15 days, scale 0 to 100, 0 = no effect, 100 = complete control
[16] = preemergence, 250 g ai/ha, scale 0 to 100, 0 is no effect, 100 is complete control
[17] = 125 g ai/ha, scale 0 to 100, 0 no effect, 100 complete control
[18] = preemergence, 31 g ai/ha, visual rating, scale 0 to 100 (0 no effect, 100 complete control), 13 to 15 days
[19] = Postemergence, 500 g ai/ha, visual rating after approx. 10 days, 0 to 100 scale (0 no effect, 100 complete control)
[20] = postemergence, 125 g ai/ha, about 10 days, visual rating on 0 to 100 scale (0 no effect, 100 complete control)
[21] = Postemergence, 31 g ai/ha, visually evaluated after 13 to 15 days
[22] = preemergence, 125 g ai/ha, scale 0 to 100, 0 is no effect, 100 is complete control

Structure (SMILES): CCc1cc(C(=O)NCC(F)(F)F)nn1Cc1ccnc(Br)c1 [Compound 224]
- Morningglory plant response rating (morningglory [1]; [7]): 30
- Morningglory plant response rating (morningglory [1]; [8]): 100
- Blackgrass plant response rating (blackgrass; [9]): 80
- Blackgrass plant response rating (blackgrass; [10]): 100
- Plant response rating, Blackgrass (blackgrass; 125 g ai/ha, 13 to 15 days): 80
- Blackgrass plant response rating (blackgrass; [11]): 90
- Plant response rating, Waterhemp (waterhemp; [12]): 45
- Waterhemp plant response rating (waterhemp): 50
- Plant response rating, Morningglory (morningglory [2]; [13]): 5
- Morningglory plant response rating (morningglory [2]; [14]): 10
- Plant response rating, Morningglory (morningglory [2]; [15]): 40
- Morningglory plant response rating (morningglory [2]; [16]): 100
- Plant response rating, Crabgrass, Large (crabgrass, large [3]; [13]): 100
- Crabgrass, Large plant response rating (crabgrass, large [3]; [14]): 100
- Plant response rating, Crabgrass, Large (crabgrass, large [3]; [15]): 100
- Crabgrass, Large plant response rating (crabgrass, large [3]; [16]): 100
- Foxtail, Giant plant response rating (foxtail, giant; [7]): 90
- Foxtail, Giant plant response rating (foxtail, giant; [8]): 100
- Oilseed Rape plant response rating (oilseed rape [4]): 50
- Plant response rating, Oilseed Rape (oilseed rape [4]; [12]): 55
- Plant response rating, Oilseed Rape (oilseed rape [4]; [17]): 50
- Plant response rating, Velvetleaf (velvetleaf; [12]): 25
- Velvetleaf plant response rating (velvetleaf): 20
- Plant response rating, Soybean (soybean; [12]): 60
- Soybean plant response rating (soybean; [17]): 70
- Plant response rating, Ducksalad (ducksalad): 75
- Plant response rating, Johnsongrass (johnsongrass; [13]): 15
- Johnsongrass plant response rating (johnsongrass; [14]): 50
- Plant response rating, Johnsongrass (johnsongrass; [15]): 60
- Johnsongrass plant response rating (johnsongrass; [16]): 98
- Plant response rating (scale of 0 to 100 where 0 is no effect and 100 is complete control), Crabgrass, Large (crabgrass, large [5]): 5
- Crabgrass, Large plant response rating (crabgrass, large [5]): 5
- Plant response rating, Crabgrass, Large (crabgrass, large [5]; [12]): 20
- Plant response rating, Crabgrass, Large (crabgrass, large [5]; [17]): 5
- Plant response rating, Oilseed Rape (oilseed rape [6]; [13]): 80
- Oilseed Rape plant response rating (oilseed rape [6]; [14]): 90
- Plant response rating, Oilseed Rape (oilseed rape [6]; [15]): 95
- Oilseed Rape plant response rating (oilseed rape [6]; [16]): 95

Structure (SMILES): CCc1cc(C(=O)NCC(F)(F)F)nn1Cc1ccnc(SC(F)(F)F)c1 [Compound 214]
- Morningglory plant response rating (morningglory [1]; [7]): 80
- Morningglory plant response rating (morningglory [1]; [8]): 100
- Blackgrass plant response rating (blackgrass; [9]): 85
- Blackgrass plant response rating (blackgrass; [10]): 40
- Plant response rating, Blackgrass (blackgrass; 125 g ai/ha, 13 to 15 days): 90
- Blackgrass plant response rating (blackgrass; [11]): 90
- Plant response rating, Waterhemp (waterhemp; [12]): 70
- Waterhemp plant response rating (waterhemp): 60
- Morningglory plant response rating (morningglory [2]; [18]): 25
- Morningglory plant response rating (morningglory [2]; [14]): 98
- Plant response rating, Morningglory (morningglory [2]; [15]): 100
- Morningglory plant response rating (morningglory [2]; [16]): 100
- Crabgrass, Large plant response rating (crabgrass, large [3]; [18]): 100
- Crabgrass, Large plant response rating (crabgrass, large [3]; [14]): 100
- Plant response rating, Crabgrass, Large (crabgrass, large [3]; [15]): 100
- Crabgrass, Large plant response rating (crabgrass, large [3]; [16]): 100
- Foxtail, Giant plant response rating (foxtail, giant; [7]): 100
- Foxtail, Giant plant response rating (foxtail, giant; [8]): 100
- Oilseed Rape plant response rating (oilseed rape [4]): 60
- Plant response rating, Oilseed Rape (oilseed rape [4]; [12]): 70
- Plant response rating, Oilseed Rape (oilseed rape [4]; [17]): 60
- Plant response rating, Velvetleaf (velvetleaf; [12]): 75
- Velvetleaf plant response rating (velvetleaf): 20
- Plant response rating, Soybean (soybean; [12]): 95
- Soybean plant response rating (soybean; [17]): 90
- Plant response rating, Ducksalad (ducksalad): 90
- Johnsongrass plant response rating (johnsongrass; [18]): 0
- Johnsongrass plant response rating (johnsongrass; [14]): 40
- Plant response rating, Johnsongrass (johnsongrass; [15]): 75
- Johnsongrass plant response rating (johnsongrass; [16]): 90
- Plant response rating (scale of 0 to 100 where 0 is no effect and 100 is complete control), Crabgrass, Large (crabgrass, large [5]): 5
- Crabgrass, Large plant response rating (crabgrass, large [5]): 5
- Plant response rating, Crabgrass, Large (crabgrass, large [5]; [12]): 55
- Plant response rating, Crabgrass, Large (crabgrass, large [5]; [17]): 20
- Oilseed Rape plant response rating (oilseed rape [6]; [18]): 80
- Oilseed Rape plant response rating (oilseed rape [6]; [14]): 95
- Plant response rating, Oilseed Rape (oilseed rape [6]; [15]): 95
- Oilseed Rape plant response rating (oilseed rape [6]; [16]): 95

Structure (SMILES): CCc1cc(C(=O)NCC(F)(F)F)nn1Cc1cc(C(F)(F)F)nn1C [Compound 108, 5-ethyl-1-[[1-methyl-3-(trifluoromethyl)-1H-pyrazole-5-yl]methyl]-N-(2,2,2-trifluoroethyl)-1H-pyrazole-3-carboxamide]
- Morningglory plant response rating (morningglory [1]; [19]): 100
- Morningglory plant response rating (morningglory [1]; [20]): 90
- Plant response rating (scale of 0 to 100), Blackgrass (blackgrass; Preemergence, 250 g ai/ha): 100
- Blackgrass plant response rating (blackgrass; [9]): 100
- Blackgrass plant response rating (blackgrass; [10]): 100
- Blackgrass plant response rating (blackgrass; 125 g ai/ha, scale 0 to 100, 0 is no effect, 100 is complete control): 100
- Plant response rating (scale of 0 to 100 where 0 is no effect and 100 is complete control), Waterhemp (waterhemp; [21]): 5
- Waterhemp plant response rating (waterhemp; 62 g ai/ha): 50
- Plant response rating, Waterhemp (waterhemp; [12]): 80
- Plant response rating, Waterhemp (waterhemp; [17]): 50
- Plant response rating (scale of 0 to 100), Morningglory (morningglory [2]; Preemergence, 250 g ai/ha): 100
- Morningglory plant response rating (morningglory [2]; [18]): 98
- Morningglory plant response rating (morningglory [2]; [14]): 100
- Morningglory plant response rating (morningglory [2]; [22]): 100
- Plant response rating (scale of 0 to 100), Crabgrass, Large (crabgrass, large [3]; Preemergence, 250 g ai/ha): 100
- Crabgrass, Large plant response rating (crabgrass, large [3]; [18]): 100
- Crabgrass, Large plant response rating (crabgrass, large [3]; [14]): 100
- Crabgrass, Large plant response rating (crabgrass, large [3]; [22]): 100
- Foxtail, Giant plant response rating (foxtail, giant; [19]): 100
- Foxtail, Giant plant response rating (foxtail, giant; [20]): 90
- Plant response rating (scale of 0 to 100 where 0 is no effect and 100 is complete control), Oilseed Rape (oilseed rape [4]; [21]): 50
- Oilseed Rape plant response rating (oilseed rape [4]): 50
- Plant response rating, Oilseed Rape (oilseed rape [4]; [12]): 55
- Plant response rating, Oilseed Rape (oilseed rape [4]; [17]): 55
- Plant response rating (scale of 0 to 100 where 0 is no effect and 100 is complete control), Velvetleaf (velvetleaf; [21]): 5
- Velvetleaf plant response rating (velvetleaf; 62 g ai/ha): 10
- Plant response rating, Velvetleaf (velvetleaf; [12]): 40
- Plant response rating, Velvetleaf (velvetleaf; [17]): 35
- Plant response rating (scale of 0 to 100 where 0 is no effect and 100 is complete control), Soybean (soybean; [21]): 30
- Soybean plant response rating (soybean; 62 g ai/ha, scale 0 to 100): 90
- Plant response rating, Soybean (soybean; [12]): 98
- Plant response rating, Soybean (soybean; [17]): 90
- Plant response rating, Ducksalad (ducksalad): 60
- Plant response rating (scale of 0 to 100), Johnsongrass (johnsongrass; Preemergence, 250 g ai/ha): 100
- Johnsongrass plant response rating (johnsongrass; [18]): 35
- Johnsongrass plant response rating (johnsongrass; [14]): 90
- Johnsongrass plant response rating (johnsongrass; [22]): 100
- Plant response rating (scale of 0 to 100 where 0 is no effect and 100 is complete control), Crabgrass, Large (crabgrass, large [5]): 5
- Crabgrass, Large plant response rating (crabgrass, large [5]): 10
- Plant response rating, Crabgrass, Large (crabgrass, large [5]; [12]): 50
- Plant response rating, Crabgrass, Large (crabgrass, large [5]; [17]): 10
- Plant response rating (scale of 0 to 100), Oilseed Rape (oilseed rape [6]; Preemergence, 250 g ai/ha): 100
- Oilseed Rape plant response rating (oilseed rape [6]; [18]): 90
- Oilseed Rape plant response rating (oilseed rape [6]; [14]): 98
- Oilseed Rape plant response rating (oilseed rape [6]; [22]): 100

From patent US20150105252A1, “SUBSTITUTED PYRAZOLES AS HERBICIDES” (E I DU PONT DE NEMOURS AND COMPANY, priority 2013, published 2015)
